Data reported in patent publication US20240384268A1, “Oligonucleotides” (Hudson Institute of Medical Research, priority 2021, published 2024).
In the oligonucleotide strings, read from the 5' end, every base follows the letter of its sugar. An asterisk marks phosphorothioate; unmarked linkages are phosphodiester. Other units and linkages are bracketed, terminal groups are in braces. A string of capitals states the bases alone. m = 2'-O-methyl

Target: T1, human TLR9 (Homo sapiens, UniProt Q9NR96)
T1 construct: HA; host or cells: 293XL-hTLR9-HA (HEK293)
T1 sequence (Q9NR96 26-1032): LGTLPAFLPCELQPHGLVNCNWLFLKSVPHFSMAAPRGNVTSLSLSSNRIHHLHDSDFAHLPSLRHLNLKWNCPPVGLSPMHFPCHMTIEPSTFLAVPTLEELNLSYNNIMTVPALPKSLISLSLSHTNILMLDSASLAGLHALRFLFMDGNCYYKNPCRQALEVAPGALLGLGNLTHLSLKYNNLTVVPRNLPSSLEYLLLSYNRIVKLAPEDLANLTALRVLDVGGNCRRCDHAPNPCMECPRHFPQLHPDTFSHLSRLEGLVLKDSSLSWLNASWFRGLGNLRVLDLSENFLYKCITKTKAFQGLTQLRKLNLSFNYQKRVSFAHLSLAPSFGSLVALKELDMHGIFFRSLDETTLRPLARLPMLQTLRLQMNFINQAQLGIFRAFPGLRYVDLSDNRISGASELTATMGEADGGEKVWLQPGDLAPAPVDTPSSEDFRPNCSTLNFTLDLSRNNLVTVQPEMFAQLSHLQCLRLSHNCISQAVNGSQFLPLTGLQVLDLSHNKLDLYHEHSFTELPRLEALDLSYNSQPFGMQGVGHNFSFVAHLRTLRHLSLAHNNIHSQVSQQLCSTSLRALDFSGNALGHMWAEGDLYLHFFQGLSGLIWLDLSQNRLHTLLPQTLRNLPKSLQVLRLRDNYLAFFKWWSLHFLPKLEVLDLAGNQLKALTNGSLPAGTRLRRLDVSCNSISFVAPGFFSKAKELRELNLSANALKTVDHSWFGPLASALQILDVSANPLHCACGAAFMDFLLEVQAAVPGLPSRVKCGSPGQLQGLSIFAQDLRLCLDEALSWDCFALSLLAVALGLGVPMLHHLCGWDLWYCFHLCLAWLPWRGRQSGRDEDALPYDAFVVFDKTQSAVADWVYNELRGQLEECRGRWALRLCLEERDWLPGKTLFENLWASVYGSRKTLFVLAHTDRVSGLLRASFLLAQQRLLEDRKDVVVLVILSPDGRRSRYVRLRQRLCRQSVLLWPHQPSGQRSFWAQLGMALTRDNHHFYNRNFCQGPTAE
Experiment: HEK-TLR9 NF-κB-luciferase reporter, ODN2006 stimulation
Assay type: cell-based
Conditions: for TLR9 2 uM: 3mer 2'OMe ASO at 2 uM, HEK-TLR9, value relative to Ligand only = 1.000, NT = 0.000; for TLR9 100 nM (averaged NF-κB-Luciferase level relative to ODN2006 condition): ASO 100 nM; for TLR9 100 nM (averaged NF-κB-Luciferase level relative to ODN2006 condition) / TLR9 500 nM (averaged NF-κB-Luciferase level relative to ODN2006 condition): relative to ODN2006 only, given as fraction; for TLR9 500 nM (averaged NF-κB-Luciferase level relative to ODN2006 condition): ASO 500 nM

Question: Which “TLR9 2 uM” value does the source give for GCU (mG*mC*mU) here?
Answer: The value was 1.429.

Question: Which “TLR9 100 nM (averaged NF-κB-Luciferase level relative to ODN2006 condition)” value does the source give for “GTGTCTGGAAGCTTCC (antisense; LNA-modified, pattern not given here) [CTNN2B-809 LNA V1]” here?
Answer: The value was 0.493.

Question: What about the “TLR9 500 nM (averaged NF-κB-Luciferase level relative to ODN2006 condition)” value of the same substance?
Answer: Its value is 0.613.

Question: With AUA (antisense mA*mU*mA) as the substance, how does the “TLR9 2 uM” value read?
Answer: Its value is 0.944.

Question: What does the source list for “TGCACACTTCGTACCC (antisense; LNA-modified, pattern not given here) [CAMSAP1-4916 LNA V1]”?
Answer: TLR9 100 nM (averaged NF-κB-Luciferase level relative to ODN2006 condition): 0.283; TLR9 500 nM (averaged NF-κB-Luciferase level relative to ODN2006 condition): 0.244

Question: Which “TLR9 100 nM (averaged NF-κB-Luciferase level relative to ODN2006 condition)” value does the source give for “GCATCCACCACGTCGT (antisense; LNA-modified, pattern not given here) [EGFR-3267 LNA V1]” here?
Answer: Its value is 0.556.

Question: What about the “TLR9 500 nM (averaged NF-κB-Luciferase level relative to ODN2006 condition)” value of the same substance?
Answer: The value was 0.375.

Question: Which “TLR9 100 nM (averaged NF-κB-Luciferase level relative to ODN2006 condition)” value does the source give for “CCATCCATGAGGTCCT (antisense; LNA-modified, pattern not given here) [CTNN2B-2545 LNA V1]” here?
Answer: The value was 1.383.

Question: What about the “TLR9 500 nM (averaged NF-κB-Luciferase level relative to ODN2006 condition)” value of the same substance?
Answer: The value was 0.476.

Question: Which results are given for “GCCATGTTTCTTCTTG (antisense; LNA-modified, pattern not given here) [MB21D1-1248 LNA KL]”?
Answer: TLR9 100 nM (averaged NF-κB-Luciferase level relative to ODN2006 condition): 0.163; TLR9 500 nM (averaged NF-κB-Luciferase level relative to ODN2006 condition): 0.070

Question: How did the “TLR9 2 uM” value turn out when “mAmUmC (mA*mU*mC) [AUC, 3-mer 2′OMe PS oligo]” was run?
Answer: Its value is 0.884.

Question: How did the “TLR9 2 uM” value turn out when CUA (mC*mU*mA) was run?
Answer: Its value is 1.182.

Question: “dA*dC*dA (DNA ACA; listed as RNA, chemistry not fully specified)” was tested. Which “TLR9 2 uM” value did it give?
Answer: Its value is 1.042.

Question: How did the “TLR9 2 uM” value turn out when CCU (mC*mC*mU) was run?
Answer: Its value is 1.180.

Question: For “GTATCGAAAGAGTCTG (antisense; LNA-modified, pattern not given here) [EGFR-3908 LNA KL]”, which “TLR9 100 nM (averaged NF-κB-Luciferase level relative to ODN2006 condition)” value is on record?
Answer: The value was 1.429.

Question: And the “TLR9 500 nM (averaged NF-κB-Luciferase level relative to ODN2006 condition)” value?
Answer: Its value is 0.647.

Question: For “TGGCCTCCCATCTCCT (antisense; LNA-modified, pattern not given here) [HPRT LNA-329 V1]”, which “TLR9 100 nM (averaged NF-κB-Luciferase level relative to ODN2006 condition)” value is on record?
Answer: Its value is 0.743.

Question: What about the “TLR9 500 nM (averaged NF-κB-Luciferase level relative to ODN2006 condition)” value of the same substance?
Answer: The value was 0.277.

Question: For “GCAGGCTCAGTGATGT (antisense; LNA-modified, pattern not given here) [CTNN2B-1642 LNA V1]”, which “TLR9 100 nM (averaged NF-κB-Luciferase level relative to ODN2006 condition)” value is on record?
Answer: The value was 1.036.

Question: What about the “TLR9 500 nM (averaged NF-κB-Luciferase level relative to ODN2006 condition)” value of the same substance?
Answer: The value was 0.228.

Question: How did the “TLR9 2 uM” value turn out when “UUG (listed as RNA, chemistry not fully specified)” was run?
Answer: The value was 0.816.

Question: For “dA*dA*dA (DNA AAA; listed as DNA, chemistry not fully specified)”, which “TLR9 2 uM” value is on record?
Answer: The value was 0.845.

Question: How did the “TLR9 100 nM (averaged NF-κB-Luciferase level relative to ODN2006 condition)” value turn out when “TGATGGCCTCCCATCT (antisense; LNA-modified, pattern not given here) [HPRT LNA-332 V1]” was run?
Answer: The value was 0.770.

Question: And the “TLR9 500 nM (averaged NF-κB-Luciferase level relative to ODN2006 condition)” value?
Answer: Its value is 0.153.

Question: AUG (mA*mU*mG) was tested. Which “TLR9 2 uM” value did it give?
Answer: The value was 0.878.

Question: With “GTTCAGTCCTGTCCAT (antisense; LNA-modified, pattern not given here) [HPRT LNA-292 V1]” as the substance, how does the “TLR9 100 nM (averaged NF-κB-Luciferase level relative to ODN2006 condition)” value read?
Answer: Its value is 1.081.

Question: What about the “TLR9 500 nM (averaged NF-κB-Luciferase level relative to ODN2006 condition)” value of the same substance?
Answer: Its value is 0.382.

Question: UCC (mU*mC*mC) was tested. Which “TLR9 2 uM” value did it give?
Answer: The value was 1.106.

Question: “dA*dA*dG (DNA AAG; listed as DNA, chemistry not fully specified)” was tested. Which “TLR9 2 uM” value did it give?
Answer: Its value is 0.870.

Question: How did the “TLR9 2 uM” value turn out when “mGmAmU (mG*mA*mU) [GAU, 3-mer 2′OMe PS oligo]” was run?
Answer: Its value is 0.700.

Question: How did the “TLR9 100 nM (averaged NF-κB-Luciferase level relative to ODN2006 condition)” value turn out when “TCGTAGTTGCTTCCTA (antisense; LNA-modified, pattern not given here) [MB21D1-1181 LNA KL]” was run?
Answer: The value was 0.987.

Question: What about the “TLR9 500 nM (averaged NF-κB-Luciferase level relative to ODN2006 condition)” value of the same substance?
Answer: The value was 0.224.

Question: Which “TLR9 2 uM” value does the source give for mUmCmG (antisense mU*mC*mG) [660-3b] here?
Answer: The value was 0.514.

Question: For UAU (mU*mA*mU), which “TLR9 2 uM” value is on record?
Answer: The value was 1.145.

Question: How did the “TLR9 2 uM” value turn out when “mUmGmA (mU*mG*mA) [UGA, 3-mer 2′OMe PS oligo]” was run?
Answer: The value was 1.034.

Question: With UUA (mU*mU*mA) as the substance, how does the “TLR9 2 uM” value read?
Answer: Its value is 0.912.

Question: With “GATAGCACCTTCAGCA (antisense; LNA-modified, pattern not given here) [CTNN2B-1294 LNA KL]” as the substance, how does the “TLR9 100 nM (averaged NF-κB-Luciferase level relative to ODN2006 condition)” value read?
Answer: Its value is 0.804.

Question: And the “TLR9 500 nM (averaged NF-κB-Luciferase level relative to ODN2006 condition)” value?
Answer: The value was 0.560.

Question: Which “TLR9 2 uM” value does the source give for UGC (mU*mG*mC) here?
Answer: Its value is 1.198.

Question: With “dC*dC*dA (CCA; listed as DNA, chemistry not fully specified)” as the substance, how does the “TLR9 2 uM” value read?
Answer: The value was 1.014.

Question: How did the “TLR9 2 uM” value turn out when CUG (mC*mU*mG) was run?
Answer: The value was 0.948.

Question: Which “TLR9 2 uM” value does the source give for CGU (mC*mG*mU) here?
Answer: The value was 1.237.

Question: With CUC (mC*mU*mC) as the substance, how does the “TLR9 2 uM” value read?
Answer: The value was 0.966.

Question: With “mUmCmA (mU*mC*mA) [UCA, 3-mer 2′OMe PS oligo]” as the substance, how does the “TLR9 2 uM” value read?
Answer: The value was 0.872.

Question: With “dC*dC*dG (CCG; listed as DNA, chemistry not fully specified)” as the substance, how does the “TLR9 2 uM” value read?
Answer: The value was 0.936.

Question: Which “TLR9 2 uM” value does the source give for UUU (mU*mU*mU) here?
Answer: Its value is 0.936.

Question: With mCmUmU (antisense mC*mU*mU) [660-3] as the substance, how does the “TLR9 2 uM” value read?
Answer: The value was 1.108.

Question: Which “TLR9 2 uM” value does the source give for “dA*dG*dA (DNA AGA; listed as DNA, chemistry not fully specified)” here?
Answer: Its value is 0.848.

Question: AAU (antisense mA*mA*mU) was tested. Which “TLR9 2 uM” value did it give?
Answer: The value was 0.884.

Question: With AUU (mA*mU*mU) as the substance, how does the “TLR9 2 uM” value read?
Answer: Its value is 0.864.

Question: How did the “TLR9 2 uM” value turn out when “dC*dA*dA (CAA; listed as DNA, chemistry not fully specified)” was run?
Answer: Its value is 0.917.

Question: For “dC*dC*dC (CCC; listed as DNA, chemistry not fully specified)”, which “TLR9 2 uM” value is on record?
Answer: Its value is 1.069.

Question: How did the “TLR9 2 uM” value turn out when UCU (mU*mC*mU) was run?
Answer: The value was 0.876.

Question: With CAU (mC*mA*mU) as the substance, how does the “TLR9 2 uM” value read?
Answer: Its value is 0.921.

Question: For “GTCTTGGCTTCGTGGA (antisense; LNA-modified, pattern not given here) [MB21D1-522 LNA V1]”, which “TLR9 100 nM (averaged NF-κB-Luciferase level relative to ODN2006 condition)” value is on record?
Answer: Its value is 0.745.

Question: What about the “TLR9 500 nM (averaged NF-κB-Luciferase level relative to ODN2006 condition)” value of the same substance?
Answer: The value was 0.392.

Question: Which “TLR9 2 uM” value does the source give for UGU (mU*mG*mU) here?
Answer: Its value is 1.085.

Question: How did the “TLR9 100 nM (averaged NF-κB-Luciferase level relative to ODN2006 condition)” value turn out when “GCCATCCACTTGATAG (antisense; LNA-modified, pattern not given here) [EGFR-2874 LNA V1]” was run?
Answer: The value was 0.772.

Question: What about the “TLR9 500 nM (averaged NF-κB-Luciferase level relative to ODN2006 condition)” value of the same substance?
Answer: The value was 0.589.

Question: UAA (mU*mA*mA) was tested. Which “TLR9 2 uM” value did it give?
Answer: The value was 1.176.

Question: How did the “TLR9 2 uM” value turn out when “dC*dG*dA (CGA; listed as DNA, chemistry not fully specified)” was run?
Answer: The value was 1.061.
